In brackets after ≈: the same amount, converted by molar mass.
Legend:
[1] = system: UO-31; assay: Antitumor activity against human UO31 cells assessed as cell growth at 0.1 uM; type: functional; conditions: read-out: Activity
[2] = system: TK-10; assay: Antitumor activity against human TK10 cells assessed as cell growth at 0.1 uM; type: functional; conditions: read-out: Activity
[3] = system: SN12C; assay: Antitumor activity against human SN12C cells assessed as cell growth at 0.1 uM; type: functional; conditions: read-out: Activity
[4] = system: RXF 393; assay: Antitumor activity against human RXF393 cells assessed as cell growth at 0.1 uM; type: functional; conditions: read-out: Activity
[5] = system: ACHN; assay: Antitumor activity against human ACHN cells assessed as cell growth at 0.1 uM; type: functional; conditions: read-out: Activity
[6] = system: CAKI-1; assay: Antitumor activity against human CAKI-1 cells assessed as cell growth at 0.1 uM; type: functional; conditions: read-out: Activity
[7] = system: A498; assay: Antitumor activity against human A498 cells assessed as cell growth at 0.1 uM; type: functional; conditions: read-out: Activity
[8] = system: SK-OV-3; assay: Antitumor activity against human SKOV3 cells assessed as cell growth at 0.1 uM; type: functional; conditions: read-out: Activity
[9] = system: NCI/ADR-RES; assay: Antitumor activity against human NCI/ADR-RES cells assessed as cell growth at 0.1 uM; type: functional; conditions: read-out: Activity
[10] = system: OVCAR-8; assay: Antitumor activity against human OVCAR8 cells assessed as cell growth at 0.1 uM; type: functional; conditions: read-out: Activity
[11] = system: OVCAR-5; assay: Antitumor activity against human OVCAR5 cells assessed as cell growth at 0.1 uM; type: functional; conditions: read-out: Activity
[12] = system: OVCAR-3; assay: Antitumor activity against human OVCAR3 cells assessed as cell growth at 0.1 uM; type: functional; conditions: read-out: Activity
[13] = system: OVCAR-4; assay: Antitumor activity against human OVCAR4 cells assessed as cell growth at 0.1 uM; type: functional; conditions: read-out: Activity
[14] = system: IGROV-1; assay: Antitumor activity against human IGROV1 cells assessed as cell growth at 0.1 uM; type: functional; conditions: read-out: Activity
[15] = system: UACC-62; assay: Antitumor activity against human UACC62 cells assessed as cell growth at 0.1 uM; type: functional; conditions: read-out: Activity
[16] = system: UACC-257; assay: Antitumor activity against human UACC257 cells assessed as cell growth at 0.1 uM; type: functional; conditions: read-out: Activity
[17] = system: SK-MEL-5; assay: Antitumor activity against human SK-MEL-5 cells assessed as cell growth at 0.1 uM; type: functional; conditions: read-out: Activity
[18] = system: SK-MEL-28; assay: Antitumor activity against human SK-MEL-28 cells assessed as cell growth at 0.1 uM; type: functional; conditions: read-out: Activity
[19] = system: MDA-MB-435; assay: Antitumor activity against human MDA-MB-435 cells assessed as cell growth at 0.1 uM; type: functional; conditions: read-out: Activity
[20] = system: M14; assay: Antitumor activity against human M14 cells assessed as cell growth at 0.1 uM; type: functional; conditions: read-out: Activity
[21] = system: Malme-3M; assay: Antitumor activity against human MALME-3M cells assessed as cell growth at 0.1 uM; type: functional; conditions: read-out: Activity
[22] = system: LOX IMVI; assay: Antitumor activity against human LOXIMVI cells assessed as cell growth at 0.1 uM; type: functional; conditions: read-out: Activity
[23] = system: U-251; assay: Antitumor activity against human U251 cells assessed as cell growth at 0.1 uM; type: functional; conditions: read-out: Activity
[24] = system: SNB-75; assay: Antitumor activity against human SNB75 cells assessed as cell growth at 0.1 uM; type: functional; conditions: read-out: Activity
[25] = system: SF-539; assay: Antitumor activity against human SF539 cells assessed as cell growth at 0.1 uM; type: functional; conditions: read-out: Activity
[26] = system: SNB-19; assay: Antitumor activity against human SNB19 cells assessed as cell growth at 0.1 uM; type: functional; conditions: read-out: Activity
[27] = system: SF-295; assay: Antitumor activity against human SF295 cells assessed as cell growth at 0.1 uM; type: functional; conditions: read-out: Activity
[28] = system: SF-268; assay: Antitumor activity against human SF268 cells assessed as cell growth at 0.1 uM; type: functional; conditions: read-out: Activity
[29] = system: SW-620; assay: Antitumor activity against human SW620 cells assessed as cell growth at 0.1 uM; type: functional; conditions: read-out: Activity
[30] = system: HCT-15; assay: Antitumor activity against human HCT15 cells assessed as cell growth at 0.1 uM; type: functional; conditions: read-out: Activity
[31] = system: HT-29; assay: Antitumor activity against human HT-29 cells assessed as cell growth at 0.1 uM; type: functional; conditions: read-out: Activity
[32] = system: HCT-116; assay: Antitumor activity against human HCT116 cells assessed as cell growth at 0.1 uM; type: functional; conditions: read-out: Activity
[33] = Antitumor activity against human HCC2998 cells assessed as cell growth at 0.1 uM; type: functional; conditions: HCC 2998, read-out: Activity
[34] = system: NCI-H460; assay: Antitumor activity against human NCI-H460 cells assessed as cell growth at 0.1 uM; type: functional; conditions: read-out: Activity
[35] = system: NCI-H522; assay: Antitumor activity against human NCI-H522 cells assessed as cell growth at 0.1 uM; type: functional; conditions: read-out: Activity
[36] = system: NCI-H23; assay: Antitumor activity against human NCI-H23 cells assessed as cell growth at 0.1 uM; type: functional; conditions: read-out: Activity
[37] = system: NCI-H226; assay: Antitumor activity against human NCI-H226 cells assessed as cell growth at 0.1 uM; type: functional; conditions: read-out: Activity
[38] = system: HOP-62; assay: Antitumor activity against human HOP62 cells assessed as cell growth at 0.1 uM; type: functional; conditions: read-out: Activity
[39] = Antitumor activity against human EKVX cells assessed as cell growth at 0.1 uM; type: functional; conditions: read-out: Activity
[40] = system: A549; assay: Antitumor activity against human A549/ATCC cells assessed as cell growth at 0.1 uM; type: functional; conditions: read-out: Activity
[41] = system: SR; assay: Antitumor activity against human SR cells assessed as cell growth at 0.1 uM; type: functional; conditions: read-out: Activity
[42] = system: MOLT-4; assay: Antitumor activity against human MOLT4 cells assessed as cell growth at 0.1 uM; type: functional; conditions: read-out: Activity
[43] = system: RPMI-8226; assay: Antitumor activity against human RPMI8226 cells assessed as cell growth at 0.1 uM; type: functional; conditions: read-out: Activity
[44] = system: K562; assay: Antitumor activity against human K562 cells assessed as cell growth at 0.1 uM; type: functional; conditions: read-out: Activity
[45] = system: HL-60; assay: Antitumor activity against human HL60(TB) cells assessed as cell growth at 0.1 uM; type: functional; conditions: read-out: Activity
[46] = system: CCRF-CEM; assay: Antitumor activity against human CCRF-CEM cells assessed as cell growth at 0.1 uM; type: functional; conditions: read-out: Activity
[47] = system: Mycobacterium tuberculosis; assay: Antitubercular activity against Mycobacterium tuberculosis H37Rv assessed as growth inhibition after 12 to 28 days by L.J. agar MIC method; type: functional
[48] = system: Aspergillus clavatus; assay: Antimicrobial activity against Aspergillus clavatus MTCC 1323 assessed as growth inhibition measured after overnight incubation by broth dilution method; type: functional
[49] = system: Aspergillus niger; assay: Antimicrobial activity against Aspergillus niger MTCC 282 assessed as growth inhibition measured after overnight incubation by broth dilution method; type: functional
[50] = system: Candida albicans; assay: Antimicrobial activity against Candida albicans MTCC 227 assessed as growth inhibition measured after overnight incubation by broth dilution method; type: functional
[51] = system: Pseudomonas aeruginosa; assay: Antimicrobial activity against Pseudomonas aeruginosa MTCC 2488 assessed as growth inhibition measured after overnight incubation by broth dilution method; type: functional
[52] = system: Escherichia coli; assay: Antimicrobial activity against Escherichia coli MTCC 443 assessed as growth inhibition measured after overnight incubation by broth dilution method; type: functional
[53] = system: Streptococcus pyogenes; assay: Antimicrobial activity against Streptococcus pyogenes MTCC 442 assessed as growth inhibition measured after overnight incubation by broth dilution method; type: functional
[54] = system: Staphylococcus aureus; assay: Antimicrobial activity against Staphylococcus aureus MTCC 96 assessed as growth inhibition measured after overnight incubation by broth dilution method; type: functional
[55] = system: MDA-MB-468; assay: Antitumor activity against human MDA-MB-468 cells assessed as cell growth at 0.1 uM; type: functional; conditions: read-out: Activity
[56] = system: T47D; assay: Antitumor activity against human T47D cells assessed as cell growth at 0.1 uM; type: functional; conditions: read-out: Activity
[57] = Antitumor activity against human Hs 578T cells assessed as cell growth at 0.1 uM; type: functional; conditions: read-out: Activity
[58] = system: BT-549; assay: Antitumor activity against human BT549 cells assessed as cell growth at 0.1 uM; type: functional; conditions: read-out: Activity
[59] = system: MDA-MB-231; assay: Antitumor activity against human MDA-MB-231/ATCC cells assessed as cell growth at 0.1 uM; type: functional; conditions: read-out: Activity
[60] = system: DU-145; assay: Antitumor activity against human DU145 cells assessed as cell growth at 0.1 uM; type: functional; conditions: read-out: Activity
[61] = system: MCF7; assay: Antitumor activity against human MCF7 cells assessed as cell growth at 0.1 uM; type: functional; conditions: read-out: Activity
[62] = system: PC-3; assay: Antitumor activity against human PC3 cells assessed as cell growth at 0.1 uM; type: functional; conditions: read-out: Activity
[63] = system: SK-MEL-2; assay: cells; conditions: Homo sapiens, SK-MEL-2, read-out: Activity
Description: Antitumor activity against human SK-MEL-2 cells assessed as cell growth at 0.1 uM

Work on `O=C(CSc1nnc(-c2cccnc2SCc2ccccc2)o1)Nc1nc(Cl)cc(Cl)n1` yielded a growth at 0.1 µM [1] of 67.7%, a growth at 0.1 µM [2] of 109% and a growth at 0.1 µM [3] of 103%. For the same compound, the growth at 0.1 µM [4] was 105%, the growth at 0.1 µM [5] was 103% and the growth at 0.1 µM [6] was 95.8%. The growth at 0.1 µM [7] was 112%, the growth at 0.1 µM [8] was 110% and the growth at 0.1 µM [9] was 101%. It also gave a growth at 0.1 µM [10] of 102%, a growth at 0.1 µM [11] of 106% and a growth at 0.1 µM [12] of 106%. The growth at 0.1 µM [13] was 106%, the growth at 0.1 µM [14] was 105% and the growth at 0.1 µM [15] was 101%. For the same compound, the growth at 0.1 µM [16] was 113%, the growth at 0.1 µM [17] was 101% and the growth at 0.1 µM [18] was 113%. The growth at 0.1 µM [19] was 105%, the growth at 0.1 µM [20] was 92% and the growth at 0.1 µM [21] was 94%. It also gave a growth at 0.1 µM [22] of 94.9%, a growth at 0.1 µM [23] of 106% and a growth at 0.1 µM [24] of 85.7%. It also gave a growth at 0.1 µM [25] of 101%, a growth at 0.1 µM [26] of 106% and a growth at 0.1 µM [27] of 96.8%. For the same compound, the growth at 0.1 µM [28] was 99.8%, the growth at 0.1 µM [29] was 103% and the growth at 0.1 µM [30] was 106%. It also gave a growth at 0.1 µM [31] of 110%, a growth at 0.1 µM [32] of 97.2% and a growth at 0.1 µM [33] of 103%. It also gave a growth at 0.1 µM [34] of 105%, a growth at 0.1 µM [35] of 83.1% and a growth at 0.1 µM [36] of 102%. For the same compound, the growth at 0.1 µM [37] was 83.7%, the growth at 0.1 µM [38] was 90.6% and the growth at 0.1 µM [39] was 103%. It also gave a growth at 0.1 µM [40] of 104%, a growth at 0.1 µM [41] of 101% and a growth at 0.1 µM [42] of 95.7%. It also gave a growth at 0.1 µM [43] of 100%, a growth at 0.1 µM [44] of 92.8% and a growth at 0.1 µM [45] of 98.3%. For the same compound, the growth at 0.1 µM [46] was 101%, the “growth inhibition (GI)” value [47] was 98% and the MIC ([47]; Mycobacterium tuberculosis, H37Rv) was 100 µg/mL (≈ 198 µM). The MIC [48] was 500 µg/mL (≈ 989 µM), the MIC [49] was 500 µg/mL (≈ 989 µM) and the MIC [50] was 1000 µg/mL (≈ 1980 µM). For the same compound, the MIC [51] was 200 µg/mL (≈ 396 µM), the MIC [52] was 200 µg/mL (≈ 396 µM) and the MIC [53] was 200 µg/mL (≈ 396 µM). For the same compound, the MIC [54] was 250 µg/mL (≈ 495 µM), the growth at 0.1 µM [55] was 98.8% and the growth at 0.1 µM [56] was 98.5%. It also gave a growth at 0.1 µM [57] of 97.4%, a growth at 0.1 µM [58] of 102% and a growth at 0.1 µM [59] of 92%. It also gave a growth at 0.1 µM [60] of 107%, a growth at 0.1 µM [61] of 92% and a growth at 0.1 µM [62] of 94.5%. The growth at 0.1 µM [63] was 102%.
